Target: T1, CSK_T (truncated Arabidopsis CSK, amino acids 301 to 611) (Arabidopsis thaliana, UniProt F4HVG8)
T1 sequence (F4HVG8 301-611): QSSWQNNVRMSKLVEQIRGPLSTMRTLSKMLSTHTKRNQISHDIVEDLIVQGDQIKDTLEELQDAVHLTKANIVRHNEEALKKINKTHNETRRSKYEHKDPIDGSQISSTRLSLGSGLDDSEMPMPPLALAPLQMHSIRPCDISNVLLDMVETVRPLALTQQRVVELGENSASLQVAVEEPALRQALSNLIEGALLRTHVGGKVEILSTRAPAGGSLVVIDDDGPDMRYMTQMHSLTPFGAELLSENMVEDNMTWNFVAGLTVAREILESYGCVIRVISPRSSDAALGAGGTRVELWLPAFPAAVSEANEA
Assay: displacement of TNP-ATP fluorescence, […] nm
Conditions: 10 mM NaCl, 10 mM Tris-HCl pH 8; 1 µM TNP-ATP; 2 µM protein (figure legend: 1 µM); competitive displacement, no metal added; read-out: Binding affinity / ATP (mm)

Kd: 4.97 mM
Compound: Nc1ncnc2c1ncn2[C@@H]1O[C@H](COP(=O)(O)OP(=O)(O)OP(=O)(O)O)[C@@H](O)[C@H]1O [ATP]
